Reference: patent US7893064B2, “Hydrazone derivatives as kinase inhibitors” (Janssen Pharmaceutica NV, priority 2006, dated 2011)

Columns and labels:
[1] = molecular target: T1, EGFR kinase (GST fusion of intracellular portion of EGFR, NM_005228) (Homo sapiens, UniProt P00533); assay: EGFR Kinase Assay; type: biochemical; conditions: GSTEGFR, ATP 5 μM, biotinylated polyGluTyr, 33P Flashplate; read-out: EGFR Inhibition (%) IC50
T1 construct: The intracellular portion of EGFR started at nucleotide 2189 (corresponding to amino acid 667) and ended at the termination codon; made in house; host or cells: Sf9 insect cells (baculovirus)
T1 sequence (P00533 669-1210 limits assumed): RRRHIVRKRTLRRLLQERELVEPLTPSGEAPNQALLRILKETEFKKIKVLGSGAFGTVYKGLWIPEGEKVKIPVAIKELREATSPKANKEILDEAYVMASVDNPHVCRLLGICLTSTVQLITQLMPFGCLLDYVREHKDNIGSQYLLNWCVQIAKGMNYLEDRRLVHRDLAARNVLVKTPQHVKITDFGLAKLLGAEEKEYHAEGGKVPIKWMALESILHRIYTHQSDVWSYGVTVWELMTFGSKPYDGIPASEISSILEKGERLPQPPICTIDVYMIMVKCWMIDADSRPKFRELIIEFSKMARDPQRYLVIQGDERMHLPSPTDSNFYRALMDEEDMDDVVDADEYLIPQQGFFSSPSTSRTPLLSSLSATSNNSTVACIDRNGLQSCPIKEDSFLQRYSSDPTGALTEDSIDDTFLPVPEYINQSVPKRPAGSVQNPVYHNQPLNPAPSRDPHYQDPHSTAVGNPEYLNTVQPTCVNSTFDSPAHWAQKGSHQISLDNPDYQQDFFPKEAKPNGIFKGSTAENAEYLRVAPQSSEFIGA
Text: The portion was PCR amplified with primers that added the lambda attB sequences to each end, recombined into an entry vector, then into a GST destination vector (as described in Gateway Technologies Manual by Invitrogen Corporation, Carlsbad, Calif.).
The destination vector was recombined in the DH10BAC strain of bacteria to produce a bacmid. The bacmid was transfected into Sf9 cells and the supernatant containing the baculovirus was collected. The GSTEGFR protein was purified using large cultures of Sf9 cells infected with stock virus. After an appropriate period of time, the cells were collected and lysed. The GSTEGFR was then purified from the lysate on Glutathione-Sepharose columns (as described by Amersham Biosciences, Buckinghamshire, United Kingdom).
The free biotin was separated from the biotinylated polyGluTyr on a gel filtration column.
A mixture of a 10× kinase buffer (500 mM Tris at pH 8.0, 100 mM Magnesium Chloride and 1 mM Sodium Vanadate), DTT (1 mM final from 500 mM stock), ATP (5 μM final from 10 mM stock), biotinylated polyGluTyr (10 μg/μL stock), γ-^33P ATP (10 μCi/μL stock) and water was added to each well (90 μL/well) of a Streptavidin Flashplate (Perkin Elmer, Wellesley, Mass.).
Test compound in 100% DMSO (2 μL) was added to the appropriate wells. Diluted GSTEGFR (1:300 dilution in 50 mM Tris at pH 8.0 and 0.1% bovine serum albumin) (10 μL) was added to the wells to initiate the reactions.
The plates were incubated at 30° C. for 1 hr with shaking. The reacted contents were removed and the plates were sequentially washed three times with a 1×PBS stop buffer (300 μL without Magnesium and Calcium) and 100 mM EDTA. After the final wash, the same stop buffer (200 μL) was added to the wells. The plates were then sealed and read on the TopCount scintillation counter.
Test compounds were assayed in triplicate at 16 concentrations at half-log dilutions starting at 200 uM. A maximum and minimum signal for the assay was determined on each plate. The percent inhibition of a test compound was calculated according to the formula
For a series of test concentrations, the IC50 was derived by graphing percent inhibition against the log of the concentrations tested for a given compound.

[2] = molecular target: T2, HER2 (GST-HIS6-Thrombin fusion, amino acids 679 to 1255 of HER-2) (Homo sapiens, UniProt P04626); assay: HER2 Screening Assay; type: biochemical; conditions: 10 μM ATP, biotin-poly(GT) 4:1, 33P FlashPlate
T2 construct: GST (N); HIS6 (N); thrombin cleavage site (N); purchased Proqinase, Freiburg, Germany
T2 sequence (P04626 679-1255): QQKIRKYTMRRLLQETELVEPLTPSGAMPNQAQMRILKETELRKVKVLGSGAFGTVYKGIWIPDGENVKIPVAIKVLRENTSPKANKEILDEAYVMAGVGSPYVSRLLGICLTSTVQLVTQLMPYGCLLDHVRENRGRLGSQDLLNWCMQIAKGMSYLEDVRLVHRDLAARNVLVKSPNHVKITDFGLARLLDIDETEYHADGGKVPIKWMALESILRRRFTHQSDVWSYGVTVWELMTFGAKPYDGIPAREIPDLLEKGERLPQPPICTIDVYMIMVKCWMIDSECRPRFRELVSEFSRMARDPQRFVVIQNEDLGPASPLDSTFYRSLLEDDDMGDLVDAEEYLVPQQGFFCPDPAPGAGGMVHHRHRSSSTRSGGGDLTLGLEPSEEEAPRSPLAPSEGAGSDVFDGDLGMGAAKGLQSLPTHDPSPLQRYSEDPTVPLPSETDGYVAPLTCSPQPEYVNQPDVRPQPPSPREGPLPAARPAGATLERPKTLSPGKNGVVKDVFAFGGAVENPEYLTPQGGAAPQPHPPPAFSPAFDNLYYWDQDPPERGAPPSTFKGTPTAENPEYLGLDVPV
Protocol: A kinase reaction mixture was prepared containing 50 mM Tris-HCl pH=8, 10 mM MgCl2, 0.1 mM […], 1 mM DTT, 10 μM ATP, 0.025 μM biotinylated histone-H1 peptide substrate and 0.2 μCuries per well ^33P-γ-ATP (2000-3000 Ci/mmol). 70 μL of the kinase reaction mixture was dispensed into the well of a streptavidin coated FlashPlate™ (Cat. # SMP103, NEN, Boston, Mass.).
Test compound stock in 100% DMSO (1 μL) was added to the wells resulting in a final concentration of 1% DMSO in the reaction with a 100 μL final reaction volume. Each enzyme was diluted in 50 mM Tris-HCl pH=8.0, 0.1% BSA and 30 μL was added to each well to initiate the reaction. The reaction was incubated for one hour at 30° C. At the end of the 1 hr incubation, the reaction was terminated by aspirating the mixture from the plate and washing the wells twice with PBS containing 100 mM EDTA. The biotinylated peptide substrate became immobilized on the Flashplate™ and the incorporation of ^33P-γ-ATP was measured by reading the plate on a scintillation counter. Inhibition of the enzymatic activity was measured by observing a reduced amount of ^33P-γ-ATP incorporated into the immobilized peptide.
The HER2 construct consisted of a fusion of GST (Glutathione-S-Transferase), HIS6 Thrombin and the nucleotides encoding amino acids 679 to 1255 of HER-2 (Accession number M11730) (Proqinase, Freiburg, Germany). The assay used 200 ng of the N-terminal biotinylated peptide biotin-poly(GT) 4:1 (HER2) per well.
A maximum and minimum signal for the assay was determined on each plate. The percent inhibition of a test compound was calculated according to the formula: […]
For a series of test concentrations, the IC50 was derived by graphing percent inhibition against the log of the concentrations tested for a given compound with results shown in Table 2.

[3] = tested on: BT474 breast carcinoma cells; assay: Cell Proliferation Inhibition Assay (14C-thymidine incorporation), BT-474; type: cell-based; conditions: Homo sapiens, BT-474 cells
Text: (§1) The ability of a test compound to inhibit unregulated cell proliferation may be determined by measuring incorporation of ^14C-labelled thymidine into newly synthesized DNA within cell lines derived from carcinomas originating from several tissues. Accordingly, the anti-proliferative effect of a compound on cells with a variety of phenotypes may be determined.
(§2) Carcinoma cell lines were obtained from the American Type Culture Collection (ATCC) and include those such as N87 (ATCC Cat. #), SKBR3 breast carcinoma (ATCC Cat. #HTB-30) and BT474 breast carcinoma (ATCC Cat. #HTB-20)
(§3) The carcinoma cells are trypsinized and counted. The cells (3000-8000 count) are added to each well of a 96-well CytoStar tissue culture treated scintillating microplate (Amersham #RPNQ0160) in complete medium (100 μL) and the plate is then incubated in complete medium for 24 hrs at 37° C. in an inert atmosphere containing 5% CO2. Test compound (1 μL) in 100% DMSO is added to the plate test-wells with DMSO only added to control-wells. The plate is incubated in complete medium for a second 24 hr period at 37° C. in an atmosphere containing 5% CO2.
(§4) An aliquot of a solution of Methyl ^14C-thymidine (56 mC/mmol) (NEN #NEC568 or Amersham #CFA532) and complete medium (20 μL to provide 0.2 μCi/well) is then added to each well and the plate is incubated for a third 24 hr period at 37° C. in an atmosphere containing 5% CO2. The plate contents are then discarded, the plate is washed twice with PBS (200 μL) and then PBS (200 μL) is added to each well. The plate is sealed and the degree of methyl ^14C-thymidine incorporation is quantified on a Packard Top Count.

[4] = tested on: N87 carcinoma cells; assay: Cell Proliferation Inhibition Assay (14C-thymidine incorporation), N87; type: cell-based
Text: as §1, §2, §3, §4

[5] = tested on: SKBR3 breast carcinoma cells; assay: Cell Proliferation Inhibition Assay (14C-thymidine incorporation), SK-BR-3; type: cell-based; conditions: Homo sapiens, SK-BR-3 cells
Text: as §1, §2, §3, §4

| Compound | IC50 [1] [nM] | IC50 [2] [nM] | IC50 [3] [nM] | IC50 [4] [nM] | IC50 [5] [nM] |
| --- | --- | --- | --- | --- | --- |
| COC[C@@H]1CCCN1N=Cc1c(N)ncnc1Nc1ccc2c(cnn2Cc2cccc(F)c2)c1 [Cpd 8, N-[1-(3-fluoro-benzyl)-1H-indazol-5-yl]-5-{[(2S)-2-methoxymethyl-pyrrolidin-1-ylimino]-methyl}-pyrimidine-4,6-diamine] | 26.5 | 38.8 | – | – | – |
| COC[C@H]1CCCN1N=Cc1c(N)ncnc1Nc1ccc2c(cnn2Cc2cccc(F)c2)c1 [Cpd 7, N-[1-(3-fluoro-benzyl)-1H-indazol-5-yl]-5-{[(2R)-2-methoxymethyl-pyrrolidin-1-ylimino]-methyl}-pyrimidine-4,6-diamine] | 31.2 | 72.2 | – | – | – |
| Nc1ncnc(Nc2ccc3c(cnn3Cc3cccc(F)c3)c2)c1C=NNCC(F)(F)F [Cpd 10, N-[1-(3-fluoro-benzyl)-1H-indazol-5-yl]-5-[(2,2,2-trifluoro-ethyl)-hydrazonomethyl]-pyrimidine-4,6-diamine] | 52.9 | 19.8 | – | – | – |
| COc1ccc(NN=Cc2c(N)ncnc2Nc2ccc3c(cnn3Cc3cccc(F)c3)c2)cc1 [Cpd 1, N-[1-(3-fluoro-benzyl)-1H-indazol-5-yl]-5-[(4-methoxy-phenyl)-hydrazonomethyl]-pyrimidine-4,6-diamine] | 49 | 118 | – | – | – |
| CNN=Cc1c(N)ncnc1Nc1ccc2c(cnn2Cc2cccc(F)c2)c1 [Cpd 2, N-[1-(3-fluoro-benzyl)-1H-indazol-5-yl]-5-(methyl-hydrazonomethyl)-pyrimidine-4,6-diamine] | 12.4 | 83.6 | – | – | – |
| Nc1ncnc(Nc2ccc3c(cnn3Cc3cccc(F)c3)c2)c1C=NN1CCCCC1 [Cpd 3, N-[1-(3-fluoro-benzyl)-1H-indazol-5-yl]-5-(piperidin-1-yliminomethyl)-pyrimidine-4,6-diamine] | – | 18.3 | 48.5 | 365 | 691 |

Now those with a lower IC50 [2], led by results:

| IC50 [1] [nM] | IC50 [2] [nM] | IC50 [3] [nM] | IC50 [4] [nM] | IC50 [5] [nM] | Compound |
| --- | --- | --- | --- | --- | --- |
| 15.6 | 8.4 | – | – | – | CN1CCN(N=Cc2c(N)ncnc2Nc2ccc3c(cnn3Cc3cccc(F)c3)c2)CC1 [Cpd 6, N-[1-(3-fluoro-benzyl)-1H-indazol-5-yl]-5-[(4-methyl-piperazin-1-ylimino)-methyl]-pyrimidine-4,6-diamine] |
| 9.77 | 8.37 | 13.5 | 58.4 | 58.5 | Nc1ncnc(Nc2ccc3c(cnn3Cc3cccc(F)c3)c2)c1C=NN1CCN(CCO)CC1 [Cpd 9, 2-[4-({4-amino-6-[1-(3-fluoro-benzyl)-1H-indazol-5-ylamino]-pyrimidin-5-ylmethylene}-amino)-piperazin-1-yl]-ethanol] |
| 16.5 | 6.6 | 30.5 | 90.5 | 122 | Nc1ncnc(Nc2ccc3c(cnn3Cc3cccc(F)c3)c2)c1C=NN1CCOCC1 [Cpd 4, N-[1-(3-fluoro-benzyl)-1H-indazol-5-yl]-5-(morpholin-4-yliminomethyl)-pyrimidine-4,6-diamine] |
| 8.2 | 2.4 | 63 | 131 | 148 | CN(C)/N=C/c1c(N)ncnc1Nc1ccc2c(cnn2Cc2cccc(F)c2)c1 [Cpd 5, 5-(dimethyl-hydrazonomethyl)-N-[1-(3-fluoro-benzyl)-1H-indazol-5-yl]-pyrimidine-4,6-diamine] |
